ChEMBL document CHEMBL1148538, “Scaffold oriented synthesis. Part 1: Design, preparation, and biological evaluation of thienopyrazoles as kinase inhibitors” (Bioorg Med Chem Lett, 2006)

How the values were obtained:
[1] = biological target: RAC-alpha serine/threonine-protein kinase (Homo sapiens, UniProt P31749); assay: Inhibitory activity against Akt1
[2] = biological target: Serine/threonine-protein kinase PLK1 (Homo sapiens, UniProt P53350); assay: Inhibitory activity against Plk1
[3] = biological target: Serine/threonine-protein kinase PAK 4 (Homo sapiens, UniProt O96013); assay: Inhibitory activity against Pak4
Chain of Serine/threonine-protein kinase PAK 4 (O96013 whole entry): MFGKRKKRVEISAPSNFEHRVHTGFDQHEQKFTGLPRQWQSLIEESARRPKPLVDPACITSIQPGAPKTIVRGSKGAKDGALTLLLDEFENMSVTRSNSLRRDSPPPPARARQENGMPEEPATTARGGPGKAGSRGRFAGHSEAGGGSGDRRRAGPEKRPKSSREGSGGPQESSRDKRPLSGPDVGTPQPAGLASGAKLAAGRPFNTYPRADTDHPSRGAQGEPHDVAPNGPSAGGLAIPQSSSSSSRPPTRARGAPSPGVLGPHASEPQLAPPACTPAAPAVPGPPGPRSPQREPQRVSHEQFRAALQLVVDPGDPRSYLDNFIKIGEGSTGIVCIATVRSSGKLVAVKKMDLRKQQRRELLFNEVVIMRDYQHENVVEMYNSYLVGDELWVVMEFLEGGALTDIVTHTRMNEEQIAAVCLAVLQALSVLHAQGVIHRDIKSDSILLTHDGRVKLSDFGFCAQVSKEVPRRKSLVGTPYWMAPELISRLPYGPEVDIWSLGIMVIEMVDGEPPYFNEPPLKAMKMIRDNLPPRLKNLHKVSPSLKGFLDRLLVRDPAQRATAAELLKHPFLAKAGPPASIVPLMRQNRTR

[4] = biological target: Mitogen-activated protein kinase kinase kinase 8 (Homo sapiens, UniProt P41279); assay: Inhibitory activity against COT
[5] = biological target: Casein kinase II (Homo sapiens, UniProt P19784+P67870+P68400); assay: Inhibitory activity against CK2; format: protein-complex assay
Chain of Casein kinase II (P67870 whole entry): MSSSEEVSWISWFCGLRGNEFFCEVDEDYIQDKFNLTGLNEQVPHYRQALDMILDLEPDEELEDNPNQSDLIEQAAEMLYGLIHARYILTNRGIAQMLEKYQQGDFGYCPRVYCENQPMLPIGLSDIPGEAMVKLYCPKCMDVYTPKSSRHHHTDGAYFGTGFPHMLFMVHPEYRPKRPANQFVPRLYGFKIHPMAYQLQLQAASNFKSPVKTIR
Chain of Casein kinase II (P68400 whole entry): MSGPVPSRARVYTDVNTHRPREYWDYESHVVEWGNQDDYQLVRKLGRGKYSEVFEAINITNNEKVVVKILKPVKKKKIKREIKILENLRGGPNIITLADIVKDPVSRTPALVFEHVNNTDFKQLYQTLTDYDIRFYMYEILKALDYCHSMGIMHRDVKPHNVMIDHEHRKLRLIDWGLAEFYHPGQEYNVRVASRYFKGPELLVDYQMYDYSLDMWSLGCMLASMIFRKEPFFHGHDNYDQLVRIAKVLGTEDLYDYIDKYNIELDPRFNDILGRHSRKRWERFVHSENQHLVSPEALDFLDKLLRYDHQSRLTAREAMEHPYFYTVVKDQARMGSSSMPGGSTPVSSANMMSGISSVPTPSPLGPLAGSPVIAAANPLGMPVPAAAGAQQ
Chain of Casein kinase II (P19784 whole entry): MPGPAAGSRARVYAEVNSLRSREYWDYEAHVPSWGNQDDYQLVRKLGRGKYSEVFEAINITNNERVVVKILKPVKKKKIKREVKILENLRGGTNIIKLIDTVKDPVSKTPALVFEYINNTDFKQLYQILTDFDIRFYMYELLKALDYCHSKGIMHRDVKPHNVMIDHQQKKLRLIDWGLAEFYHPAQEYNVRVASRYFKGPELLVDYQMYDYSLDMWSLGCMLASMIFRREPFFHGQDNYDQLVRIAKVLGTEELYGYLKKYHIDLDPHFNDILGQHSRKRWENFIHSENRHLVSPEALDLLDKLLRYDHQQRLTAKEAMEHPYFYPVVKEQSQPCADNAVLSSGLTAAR

[6] = biological target: Cyclin-dependent kinase 2/cyclin A (Homo sapiens, UniProt P24941); assay: Inhibitory activity against CDK2/Cyclin A; format: protein-complex assay
[7] = biological target: MAP kinase-activated protein kinase 2 (Homo sapiens, UniProt P49137); assay: Inhibitory activity against MK2
Chain of MAP kinase-activated protein kinase 2 (P49137 whole entry): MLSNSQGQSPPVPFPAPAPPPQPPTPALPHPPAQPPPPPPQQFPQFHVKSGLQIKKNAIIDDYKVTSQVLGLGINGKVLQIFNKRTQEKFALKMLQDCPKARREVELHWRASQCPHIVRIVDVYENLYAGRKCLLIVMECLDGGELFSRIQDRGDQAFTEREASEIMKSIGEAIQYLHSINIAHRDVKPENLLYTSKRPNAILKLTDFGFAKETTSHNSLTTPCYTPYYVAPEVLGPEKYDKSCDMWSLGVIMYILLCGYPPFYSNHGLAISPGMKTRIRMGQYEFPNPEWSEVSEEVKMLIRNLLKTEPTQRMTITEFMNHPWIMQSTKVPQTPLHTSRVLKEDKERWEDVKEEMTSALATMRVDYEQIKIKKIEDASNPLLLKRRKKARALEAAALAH

[8] = biological target: Mitogen-activated protein kinase 14 (Homo sapiens, UniProt Q16539); assay: Inhibitory activity against p38alpha
Chain of Mitogen-activated protein kinase 14 (Q16539 whole entry): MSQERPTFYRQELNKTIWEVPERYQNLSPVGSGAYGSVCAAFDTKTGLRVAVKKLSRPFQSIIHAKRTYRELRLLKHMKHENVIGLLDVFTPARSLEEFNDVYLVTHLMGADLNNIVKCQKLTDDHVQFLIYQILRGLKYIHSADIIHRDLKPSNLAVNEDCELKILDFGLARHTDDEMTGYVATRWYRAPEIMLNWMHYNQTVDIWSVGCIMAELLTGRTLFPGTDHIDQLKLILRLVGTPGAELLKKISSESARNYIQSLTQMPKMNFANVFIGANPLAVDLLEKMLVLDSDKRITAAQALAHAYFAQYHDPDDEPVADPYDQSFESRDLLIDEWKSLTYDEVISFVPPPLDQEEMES

[9] = biological target: Vascular endothelial growth factor receptor 2 (Homo sapiens, UniProt P35968); assay: Inhibitory activity against KDR
Chain of Vascular endothelial growth factor receptor 2 (P35968 whole entry): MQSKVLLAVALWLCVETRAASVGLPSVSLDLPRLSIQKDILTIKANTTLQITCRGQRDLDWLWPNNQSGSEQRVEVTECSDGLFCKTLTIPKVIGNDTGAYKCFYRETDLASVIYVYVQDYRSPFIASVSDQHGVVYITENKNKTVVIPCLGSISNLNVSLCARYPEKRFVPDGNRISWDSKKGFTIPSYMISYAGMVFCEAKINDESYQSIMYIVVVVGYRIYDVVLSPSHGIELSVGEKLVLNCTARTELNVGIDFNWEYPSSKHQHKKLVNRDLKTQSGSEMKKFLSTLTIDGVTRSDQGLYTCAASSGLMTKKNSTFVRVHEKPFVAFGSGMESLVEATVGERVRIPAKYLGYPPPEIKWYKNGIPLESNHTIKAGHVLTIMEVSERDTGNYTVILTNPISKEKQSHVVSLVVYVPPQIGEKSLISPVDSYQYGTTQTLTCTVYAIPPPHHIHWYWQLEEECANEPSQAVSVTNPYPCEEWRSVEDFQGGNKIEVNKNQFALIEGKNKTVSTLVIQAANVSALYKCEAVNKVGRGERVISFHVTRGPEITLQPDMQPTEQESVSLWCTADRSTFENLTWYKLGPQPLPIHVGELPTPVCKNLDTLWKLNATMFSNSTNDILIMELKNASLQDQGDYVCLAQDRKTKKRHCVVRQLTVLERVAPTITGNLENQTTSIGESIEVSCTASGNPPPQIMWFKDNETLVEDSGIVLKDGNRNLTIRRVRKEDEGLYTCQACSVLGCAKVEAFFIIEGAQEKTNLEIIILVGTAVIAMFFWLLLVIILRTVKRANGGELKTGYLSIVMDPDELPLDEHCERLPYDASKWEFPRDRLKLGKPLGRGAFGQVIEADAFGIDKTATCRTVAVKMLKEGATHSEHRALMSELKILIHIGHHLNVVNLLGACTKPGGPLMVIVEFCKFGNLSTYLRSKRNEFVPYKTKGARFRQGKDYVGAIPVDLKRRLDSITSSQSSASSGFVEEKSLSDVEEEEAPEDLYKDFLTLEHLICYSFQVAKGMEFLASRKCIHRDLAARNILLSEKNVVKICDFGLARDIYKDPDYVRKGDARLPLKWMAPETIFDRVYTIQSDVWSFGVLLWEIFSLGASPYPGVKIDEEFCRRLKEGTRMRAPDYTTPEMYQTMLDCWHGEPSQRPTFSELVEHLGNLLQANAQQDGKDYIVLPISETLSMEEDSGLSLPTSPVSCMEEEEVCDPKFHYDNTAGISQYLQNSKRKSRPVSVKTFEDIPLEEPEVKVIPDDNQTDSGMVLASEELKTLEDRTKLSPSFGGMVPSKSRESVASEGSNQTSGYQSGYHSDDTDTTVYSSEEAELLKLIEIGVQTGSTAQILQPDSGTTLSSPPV

Chain of RAC-alpha serine/threonine-protein kinase (P31749 whole entry): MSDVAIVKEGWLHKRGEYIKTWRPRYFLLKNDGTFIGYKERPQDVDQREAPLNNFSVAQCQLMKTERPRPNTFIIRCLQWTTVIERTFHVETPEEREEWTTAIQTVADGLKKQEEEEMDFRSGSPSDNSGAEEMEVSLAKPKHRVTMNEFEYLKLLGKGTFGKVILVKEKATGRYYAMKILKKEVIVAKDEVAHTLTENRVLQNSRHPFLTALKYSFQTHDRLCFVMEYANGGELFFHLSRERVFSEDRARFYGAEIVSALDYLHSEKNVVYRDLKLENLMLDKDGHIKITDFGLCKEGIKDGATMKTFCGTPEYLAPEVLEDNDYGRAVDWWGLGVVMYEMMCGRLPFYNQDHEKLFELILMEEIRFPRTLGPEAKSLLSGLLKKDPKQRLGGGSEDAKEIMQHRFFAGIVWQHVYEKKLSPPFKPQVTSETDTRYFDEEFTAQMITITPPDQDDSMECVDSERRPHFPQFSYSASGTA
Chain of Serine/threonine-protein kinase PLK1 (P53350 whole entry): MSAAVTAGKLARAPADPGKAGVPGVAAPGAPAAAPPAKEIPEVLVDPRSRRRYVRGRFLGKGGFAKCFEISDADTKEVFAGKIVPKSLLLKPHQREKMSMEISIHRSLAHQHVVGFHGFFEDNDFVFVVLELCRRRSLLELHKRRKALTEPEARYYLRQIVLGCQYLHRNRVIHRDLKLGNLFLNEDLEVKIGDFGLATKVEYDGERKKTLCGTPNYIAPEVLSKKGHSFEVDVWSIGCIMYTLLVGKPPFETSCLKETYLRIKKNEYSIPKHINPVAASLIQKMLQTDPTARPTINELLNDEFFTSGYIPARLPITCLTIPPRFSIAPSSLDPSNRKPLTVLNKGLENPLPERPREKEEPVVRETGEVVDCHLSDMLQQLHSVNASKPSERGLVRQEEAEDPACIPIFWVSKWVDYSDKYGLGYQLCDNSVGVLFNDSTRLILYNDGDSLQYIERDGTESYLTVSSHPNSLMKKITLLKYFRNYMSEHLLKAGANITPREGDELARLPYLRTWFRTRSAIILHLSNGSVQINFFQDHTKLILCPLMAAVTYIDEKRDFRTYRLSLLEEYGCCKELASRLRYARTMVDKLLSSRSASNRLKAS

IC50 [1] | IC50 [2] | IC50 [3] | IC50 [4] | IC50 [5] | IC50 [6] | IC50 [7] | IC50 [8] | IC50 [9] | SMILES
> 20 µM | 17 µM | > 20 µM | > 20 µM | > 20 µM | > 20 µM | > 20 µM | > 20 µM | 2 µM | O=C(NCCc1ccccc1)c1cc2c(-c3ccccc3)n[nH]c2s1
> 20 µM | > 20 µM | > 20 µM | > 20 µM | 4 µM |  | > 20 µM |  | 17 µM | Cc1n[nH]c2sc(C(N)=O)cc12
> 20 µM | > 20 µM | > 20 µM | > 20 µM | > 20 µM | > 20 µM | 16 µM | > 20 µM | 0.51 µM | COc1ccc(CNC(=O)c2cc3c(-c4ccccc4)n[nH]c3s2)cc1
> 20 µM | > 20 µM | > 20 µM | > 20 µM | 5 µM | > 20 µM | > 20 µM | > 20 µM | 0.35 µM | CCCCN(C)C(=O)c1cc2c(-c3ccccc3)n[nH]c2s1
> 100 µM | > 100 µM | > 100 µM |  | > 100 µM |  |  |  | > 100 µM | Cc1n[nH]c2sc(C(N)=O)c(NC(=O)c3cccc(Cl)c3)c12
> 100 µM | > 100 µM | > 100 µM |  | > 100 µM |  |  |  | > 100 µM | Cc1[nH]nc2sc(C(N)=O)c(NC(=O)c3ccc(Cl)cc3)c12
> 20 µM | > 20 µM | > 20 µM |  | 9 µM |  |  |  | 19 µM | CC(=O)Nc1c(C(N)=O)sc2n[nH]c(C)c12
> 20 µM | 12 µM | > 20 µM | > 20 µM | > 20 µM | 11 µM | > 20 µM | > 20 µM | 0.49 µM | O=C(NC1CCCCC1)c1cc2c(-c3ccccc3)n[nH]c2s1
> 100 µM | > 100 µM | > 100 µM |  | 6 µM |  |  |  | 11 µM | Cc1n[nH]c2sc(C(N)=O)c(NC(=O)COc3ccccc3)c12
> 20 µM | > 20 µM | > 20 µM | > 20 µM | > 20 µM |  | > 20 µM |  | > 20 µM | Cc1n[nH]c2sc(C(=O)NC3CCCCC3)cc12
9 µM | > 20 µM | 13 µM |  | 11 µM |  |  |  | 20 µM | Cc1[nH]nc2sc(C(N)=O)c(NC(=O)Nc3ccccc3)c12
> 100 µM | > 100 µM | > 100 µM |  | > 100 µM |  |  |  | > 100 µM | COC(=O)c1cc2c(CN3CCCCC3)n[nH]c2s1
15 µM |  | > 20 µM | > 20 µM | 2 µM |  | 17 µM |  | 0.5 µM | O=C(NCc1ccccc1)c1cc2c(-c3ccccc3)n[nH]c2s1
> 100 µM | > 100 µM | > 100 µM |  | 38 µM |  |  |  | 23 µM | COC(=O)c1cc2c(C)n[nH]c2s1
> 20 µM | > 20 µM | > 20 µM | > 20 µM | 24 µM |  | > 20 µM |  | > 20 µM | CCCCN(C)C(=O)c1cc2c(C)n[nH]c2s1
16 µM | 21 µM | 37 µM |  | 5 µM |  |  |  | > 100 µM | COC(=O)c1cc2c(Nc3ccccc3)[nH]nc2s1
> 100 µM | 8 µM | > 100 µM |  | 3 µM |  |  |  | 17 µM | COC(=O)C(=O)Nc1c(C(N)=O)sc2[nH]nc(C)c12
> 20 µM | > 20 µM | > 20 µM | > 20 µM | > 20 µM | > 20 µM | > 20 µM | > 20 µM | 4 µM | CN1CCN(C(=O)c2cc3c(-c4ccccc4)n[nH]c3s2)CC1
> 20 µM | > 20 µM | > 20 µM | > 20 µM | 21 µM |  | > 20 µM |  | 16 µM | CCCCNC(=O)c1cc2c(C)n[nH]c2s1
> 100 µM | 23 µM | > 100 µM |  | 9 µM |  |  |  | 8 µM | Cc1[nH]nc2sc(C(N)=O)c(NC(=O)c3ccccc3Cl)c12
> 20 µM | 16 µM | > 20 µM | > 20 µM | 19 µM |  | > 20 µM |  | 12 µM | Cc1n[nH]c2sc(C(=O)NCc3ccccc3)cc12
17 µM | > 100 µM | > 100 µM |  | > 100 µM |  |  |  | 6 µM | Cc1n[nH]c2sc(C(N)=O)c(NC(=O)c3cccs3)c12
